Measurements reported in the PolyMetriX glass transition set.

Structure (SMILES) | glass transition temperature [°C]
*c1ccc(NC(=O)c2cc(C(=O)Nc3ccc(-c4nnc(*)o4)cc3)cc(N3C(=O)c4ccccc4C3=O)c2)cc1 (repeat unit) | 327.00
*c1ccc(Oc2cccc(Oc3ccc(N4C(=O)c5cccc(Oc6ccc(Oc7cccc8c7C(=O)N(*)C8=O)cc6)c5C4=O)cc3)c2)cc1 (repeat unit) | 214.00
*c1ccc(Oc2ccc(Oc3ccc(N4C(=O)c5ccc(Oc6ccc(-c7ccc(Oc8ccc9c(c8)C(=O)N(*)C9=O)cc7)cc6)cc5C4=O)cc3)cc2)cc1 (repeat unit) | 222.00
*c1ccc(-c2cc(C(C)(C)C)c(Oc3ccc(N4C(=O)c5ccc(-c6ccc7c(c6)C(=O)N(*)C7=O)cc5C4=O)cc3C(F)(F)F)c(C(C)(C)C)c2)cc1 (repeat unit) | 389.00
*Oc1ccc(/N=C/C=N/c2ccc(OC(=O)NC3CC(C)(C)CC(C)(CNC(*)=O)C3)cc2)cc1 (repeat unit) | 62.00
*O[Si](C)(CCC(F)(F)F)CCC(F)(F)C(F)(F)C(F)(F)C(F)(F)C(F)(F)C(F)(F)C(F)(F)C(F)(F)CC[Si](*)(C)CCC(F)(F)F (repeat unit) | -28.00
*Nc1ccc(Cc2ccc(NC(=O)c3cc(NC(=O)c4ccc(NC(=O)C(CC(C)C)N5C(=O)c6ccccc6C5=O)cc4)cc(C(*)=O)c3)cc2)cc1 (repeat unit) | 238.00
*CCCCCCNC(=O)CC(=O)N* (repeat unit) | 50.00
*C(=O)c1ccc2c(c1)C(=O)N(c1c(C)cc(-c3cc(C)c(N4C(=O)c5ccc(*)cc5C4=O)c(C)c3)cc1C)C2=O (repeat unit) | 310.00
*c1ccc2c(c1)C(=O)N(c1cccc(C(F)(F)C(F)(F)C(F)(F)C(F)(F)C(F)(F)c3cccc(N4C(=O)c5ccc(C(F)(F)C(F)(F)C(F)(F)C(F)(F)C(F)(F)C(F)(F)C(*)(F)F)cc5C4=O)c3)c1)C2=O (repeat unit) | 108.50
*CC(*)CC(C)C (repeat unit) | 35.20
*CCCCNC(=O)CCCCC(=O)N* (repeat unit) | 58.00
*Oc1ccc(NC(=O)c2ccc(Oc3ccc(C(=O)Nc4ccc(Oc5ccc(C6(c7ccc(*)cc7)C7CC8CC(C7)CC6C8)cc5)cc4)cc3)cc2)cc1 (repeat unit) | 230.00
*OC(=O)OCCCCCCCCOC(=O)OC1COC2C(*)COC12 (repeat unit) | 19.50
*c1ccc(Oc2cc3ccccc3cc2Oc2ccc(N3C(=O)c4ccc(Oc5ccccc5Oc5ccc6c(c5)C(=O)N(*)C6=O)cc4C3=O)cc2)cc1 (repeat unit) | 216.00

The remaining lines, values ahead:

glass transition temperature [°C] | Structure (SMILES)
46.00 | *CC(*)C(=O)OCCOc1ccc(C(=O)Oc2ccc(OC(=O)c3ccc(OCCCCC)cc3)cc2)cc1 (repeat unit)
133.00 | *OC(C)C#CC#CC(C)OC(=O)c1ccc(C(*)=O)cc1 (repeat unit)
100.00 | *CC(C)(C)COC(=O)c1ccc(-c2ccc(-c3ccc(C(=O)O*)cc3)cc2)cc1 (repeat unit)
175.00 | *Oc1cccc(S(=O)(=O)c2ccc(*)cc2)c1 (repeat unit)
24.00 | *CC(F)(F)C(F)(F)C(F)(F)COC(=O)c1cccc(C(F)(F)C(F)(F)C(F)(F)c2cccc(C(=O)O*)c2)c1 (repeat unit)
308.00 | *Nc1ccc(C(C)(C)c2ccc(NC(=O)c3cc(C(*)=O)cc(N4C(=O)C5CC=CCC5C4=O)c3)cc2)cc1 (repeat unit)
140.00 | *CC(*)(C)C(=O)Oc1c(OC)cc(/C=C/c2ccccc2)cc1OC (repeat unit)
180.00 | *CC(CC(*)(C#N)C#N)c1ccc(Cl)cc1 (repeat unit)
47.00 | *Oc1ccc(CC(NC(=O)CCc2ccc(OC(=O)CCCCCCCCC(*)=O)cc2)C(=O)OC)cc1 (repeat unit)
33.00 | *CC(O)COC(=O)CCCCC(=O)OCC(O)COc1ccc(/C=C(\C)c2ccc(O*)cc2)cc1 (repeat unit)
